Assay results: the NIST ThermoML archive (doi:10.1016/j.jct.2016.10.002)
± gives the expanded uncertainty stated by the source.

Columns and labels:
[1] = refractive index (Na D-line) (dimensionless); xn = mol fraction of the nth substance listed; settings: 303.15 K, 101 kPa, Liquid, Standard Abbe refractometry
[2] = refractive index (Na D-line) (dimensionless); settings: 303.15 K; 101.33 kPa; Liquid; Standard Abbe refractometry

refractive index ([1]; x1 = 0.333)	SMILES	other results
1.4853 ± 0.0007	C[N+](C)(C)CCO.[Cl-] [choline chloride] + OCC(O)CO	
1.4691 ± 0.0007	C[N+](C)(C)CCO.[Cl-] [choline chloride] + OCCO	
	O=C(O)CC(=O)O [propanedioic acid] + C[N+](C)(C)CCO.[Cl-]	refractive index ([1]; x2 = 0.5): 1.4866 ± 0.0008
	O [water]	refractive index [2]: 1.332 ± 0.0007
